Source: ChEMBL document CHEMBL1201862, “PubChem BioAssay data set” (2004)
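Test compounds were applied to cells in 96-well plates for 48 hours at 5 doses. GI50 = concentration required for 50% inhibition of growth.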 Calls of active or inactive are those of the source. No stated cut-off is given here; in the data, active = GI50 up to about 1.1 µM and inactive = higher.

How the values were obtained:
Experiment in all cases: NCI tumour cell line growth inhibition, 48 h
[1] = test system: COLO 205
[2] = test system: SK-OV-3
[3] = test system: HOP-92
[4] = test system: A549
[5] = test system: TK-10
[6] = test system: HT-29
[7] = test system: Malme-3M
[8] = test system: HOP-62
[9] = test system: NCI-H460
[10] = test system: UACC-62
[11] = test system: SK-MEL-5
[12] = test system: T47D
[13] = test system: A498
[14] = test system: NCI-H522
[15] = test system: IGROV-1
[16] = test system: SF-268
[17] = test system: 786-0
[18] = test system: PC-3
[19] = test system: RPMI-8226
[20] = test system: HL-60

Measured: GI50

Cc1cc(C)nc(NC(=O)COc2ccc(Cl)cc2)c1
inactive: [1] > 100 µM | [2] > 100 µM | [3] > 100 µM | [4] > 100 µM | [5] > 100 µM | [6] > 100 µM | [7] > 100 µM | [8] > 100 µM | [9] > 100 µM | [10] > 100 µM | [11] > 100 µM | [12] 48.9 µM | [13] > 100 µM | [14] 84.5 µM | [15] 75.3 µM | [16] > 100 µM | [17] > 100 µM | [18] > 100 µM | [19] 74.5 µM

C=CC(C)(C)C(=C)C(=O)N(C)c1ccccc1I
inactive: [1] > 100 µM | [2] > 100 µM | [3] > 100 µM | [4] > 100 µM | [5] > 100 µM | [6] > 100 µM | [8] > 100 µM | [9] > 100 µM | [10] > 100 µM | [11] 72.8 µM | [12] > 100 µM | [13] > 100 µM | [14] > 100 µM | [16] > 100 µM | [17] > 100 µM | [18] > 100 µM | [19] > 100 µM

COC(=O)CNC(=O)/C=C/[C@H](O[Si](C)(C)C(C)(C)C)[C@H](/C=C/C(=O)NCC(=O)OC)O[Si](C)(C)C(C)(C)C
inactive: [1] > 25 µM | [2] > 25 µM | [3] > 25 µM | [4] > 25 µM | [5] > 25 µM | [6] > 25 µM | [7] > 25 µM | [8] > 25 µM | [9] > 25 µM | [10] > 25 µM | [11] > 25 µM | [12] > 25 µM | [13] > 25 µM | [14] > 25 µM | [15] > 25 µM | [16] > 25 µM | [17] > 25 µM | [18] > 25 µM | [19] > 25 µM

O=C(/C=C/c1ccccc1)OCC1=C[C@@H](O)[C@@H]2C=CO[C@@H](OC3OC(CO)C(O)C(O)C3O)[C@H]12 (stereo partly specified)
inactive: [1] > 100 µM | [2] > 100 µM | [3] > 100 µM | [4] > 100 µM | [5] > 100 µM | [6] > 100 µM | [7] > 100 µM | [8] > 100 µM | [10] > 100 µM | [11] > 100 µM | [12] > 100 µM | [13] > 100 µM | [14] > 100 µM | [15] > 100 µM | [16] > 100 µM | [17] > 100 µM | [18] > 100 µM | [19] > 100 µM

COc1ccc(OC)c(/N=C/c2cc(OC)c(OC)c(OC)c2)c1
inactive: [20] 48.9 µM | [1] > 100 µM | [2] > 77.8 µM | [4] > 100 µM | [5] > 100 µM | [6] > 100 µM | [7] > 100 µM | [8] > 100 µM | [9] > 100 µM | [10] > 100 µM | [11] > 100 µM | [12] > 100 µM | [13] > 100 µM | [14] 22.9 µM | [15] > 82.8 µM | [16] > 100 µM | [17] > 95.7 µM | [18] > 100 µM | [19] > 44.1 µM

C=C(CO)[C@H]1Oc2ccc(C(C)=O)cc2[C@@H]1O
inactive: [20] > 100 µM | [1] > 100 µM | [2] > 100 µM | [4] > 100 µM | [5] > 100 µM | [6] > 100 µM | [7] 53.3 µM | [8] > 100 µM | [9] > 100 µM | [10] > 100 µM | [11] > 100 µM | [12] > 100 µM | [13] > 100 µM | [14] 88.7 µM | [15] > 100 µM | [16] > 100 µM | [17] > 100 µM | [18] > 100 µM | [19] > 100 µM
